Drawing on publication PMC6968685 (Journal of Enzyme Inhibition and Medicinal Chemistry, 2020), this text covers melting point for 20 compounds.

Where a name gives a salt, the structure may show the parent alone.

A word on the melting point: it is the temperature of the solid-liquid transition.

Take `COc1ccc2c(-c3ccc(CNCCN(C)C)cc3)nc(-c3ccc(CNCCN(C)C)cc3)nc2c1` (as salt: (cooh)2) [Compound 3o, 7-Methoxy-2,4-bis{4-[(2-dimethylaminoethyl)aminomethyl]phenyl}quinazoline]: the melting point was 234 to 236 °C.
For `COc1ccc2nc(-c3ccc(CNCCCCN(C)C)cc3)nc(-c3ccc(CNCCCCN(C)C)cc3)c2c1` (as salt: (cooh)2) [Compound 3h, 6-Methoxy-2,4-bis{4-[(4-dimethylaminobutyl)aminomethyl]phenyl}quinazoline] the value was 156 to 158 °C; for `COc1ccc2nc(-c3ccc(CNCCCN(C)C)cc3)nc(-c3ccc(CNCCCN(C)C)cc3)c2c1` (as salt: (cooh)2) [Compound 3i, 6-Methoxy-2,4-bis{4-[(3-dimethylaminopropyl)aminomethyl]phenyl}quinazoline], 243 to 245 °C; for `COc1ccc2nc(-c3ccc(CNCCN4CCN(C)CC4)cc3)nc(-c3ccc(CNCCN4CCN(C)CC4)cc3)c2c1` (as salt: (cooh)2) [Compound 3l, 6-Methoxy-2,4-bis{4-[(2–(4-methylpiperazin-1-yl)ethyl)aminomethyl]phenyl}quinazoline], 229 to 231 °C.
The compound `c1cc(CNCCCN2CCOCC2)cc(-c2cc(-c3cccc(CNCCCN4CCOCC4)c3)c3ccccc3n2)c1` (as salt: (cooh)2) [Compound 1s, 2,4-Bis{3-[(3-morpholinopropyl)aminomethyl]phenyl}quinoline] had a melting point of 221 to 223 °C.
The compound `CN(C)CCCNCc1ccc(-c2cc(-c3ccc(CNCCCN(C)C)cc3)c3ccccc3n2)cc1` (as salt: (cooh)2) [Compound 1b, 2,4-Bis{4-[(3-dimethylaminopropyl)aminomethyl]phenyl}quinoline] showed a melting point of 244 to 246 °C.
`COc1ccc2c(-c3ccc(CNCCCN(C)C)cc3)nc(-c3ccc(CNCCCN(C)C)cc3)nc2c1` (as salt: (cooh)2) [Compound 3n, 7-Methoxy-2,4-bis{4-[(3-dimethylaminopropyl)aminomethyl]phenyl}quinazoline] gave a melting point of 223 to 225 °C.
With `CN(C)CCNCc1ccc(-c2cc(-c3ccc(CNCCN(C)C)cc3)c3ccccc3n2)cc1` (as salt: (cooh)2) [Compound 1c, 2,4-Bis{4-[(2-dimethylaminoethyl)aminomethyl]phenyl}quinoline], the melting point fell in the range of 229 to 231 °C.
`COc1ccc2cc(-c3ccc(CNCCCN(C)C)cc3)nc(-c3ccc(CNCCCN(C)C)cc3)c2c1` (as salt: (cooh)2) [Compound 2f, 7-Methoxy-1,3-bis{4-[(3-dimethylaminopropyl)aminomethyl]phenyl}isoquinoline] displayed a melting point of 178 to 180 °C.
Take `COc1ccc2c(-c3ccc(CNCCCCN4CCN(C)CC4)cc3)nc(-c3ccc(CNCCCCN4CCN(C)CC4)cc3)cc2c1` (as salt: (cooh)2) [Compound 2k, 6-Methoxy-1,3-bis{4-[(4–(4-methylpiperazin-1-yl)butyl)aminomethyl]phenyl}isoquinoline]: the melting point was in the range of 216 to 218 °C.
As for `COc1ccc2c(-c3ccc(CNCCCCN(C)C)cc3)nc(-c3ccc(CNCCCCN(C)C)cc3)cc2c1` (as salt: (cooh)2) [Compound 2i, 6-Methoxy-1,3-bis{4-[(4-dimethylaminobutyl)aminomethyl]phenyl}isoquinoline], the melting point lay in the range of 135 to 137 °C.
On to `c1cc(CNCCCN2CCOCC2)cc(-c2nc(-c3cccc(CNCCCN4CCOCC4)c3)c3ccccc3n2)c1` (as salt: (cooh)2) [Compound 3u, 2,4-Bis{3-[(3-morpholinopropyl)aminomethyl]phenyl}quinazoline], for which the melting point lay in the range of 186 to 188 °C.
As for `c1cc(CNCCN2CCOCC2)cc(-c2cc(-c3cccc(CNCCN4CCOCC4)c3)c3ccccc3n2)c1` (as salt: (cooh)2) [Compound 1t, 2,4-Bis{3-[(2-morpholinoethyl)aminomethyl]phenyl}quinoline], the melting point was 225 to 227 °C.
The value for `COc1ccc2nc(-c3ccc(CNCCCN4CCN(C)CC4)cc3)cc(-c3ccc(CNCCCN4CCN(C)CC4)cc3)c2c1` (as salt: (cooh)2) [Compound 1l, 6-Methoxy-2,4-bis{4-[(3–(4-methylpiperazin-1-yl)propyl)aminomethyl]phenyl}quinoline] was 223 to 225 °C; that for `c1cc(CNCCN2CCOCC2)cc(-c2nc(-c3cccc(CNCCN4CCOCC4)c3)c3ccccc3n2)c1` (as salt: (cooh)2) [Compound 3v, 2,4-Bis{3-[(2-morpholinoethyl)aminomethyl]phenyl}quinazoline] was 234 to 236 °C.
On to `c1ccc2c(-c3ccc(CNCCN4CCOCC4)cc3)nc(-c3ccc(CNCCN4CCOCC4)cc3)nc2c1` (as salt: (cooh)2) [Compound 3g, 2,4-Bis{4-[(2-morpholinoethyl)aminomethyl]phenyl}quinazoline], for which the melting point fell in the range of 195 to 197 °C.
`CN(C)CCCCNCc1ccc(-c2cc(-c3ccc(CNCCCCN(C)C)cc3)c3ccccc3n2)cc1` (as salt: (cooh)2) [Compound 1a, 2,4-Bis{4-[(4-dimethylaminobutyl)aminomethyl]phenyl}quinoline] displayed a melting point of 258 to 260 °C.
`CN1CCN(CCCNCc2cccc(-c3nc(-c4cccc(CNCCCN5CCN(C)CC5)c4)c4ccccc4n3)c2)CC1` (as salt: (cooh)2) [Compound 3t, 2,4-Bis{3-[(3–(4-methylpiperazin-1-yl)propyl)aminomethyl]phenyl}quinazoline] gave a melting point of 252 to 254 °C.
The compound `CN(C)CCCNCc1cccc(-c2cc(-c3cccc(CNCCCN(C)C)c3)c3ccccc3n2)c1` (as salt: (cooh)2) [Compound 1q, 2,4-Bis{3-[(3-dimethylaminopropyl)aminomethyl]phenyl}quinoline] yielded a melting point of 243 to 245 °C.
Compound `c1ccc2c(-c3ccc(CNCCCN4CCOCC4)cc3)cc(-c3ccc(CNCCCN4CCOCC4)cc3)nc2c1` (as salt: (cooh)2) [Compound 1g, 2,4-Bis{4-[(3-morpholinopropyl)aminomethyl]phenyl}quinoline] yielded a melting point of 202 to 204 °C.
